Values joined by “and” are separate entries in the source; they are usually repeats but may differ in a detail not shown here. Equal values may be shown once.
System: Swiss mice, Sarcoma 180 sc, mean tumor weight T/C
Assay: NCI In Vivo Anticancer Drug Screen. Data for tumor model Sarcoma 180 (subcutaneous) in Swiss mice
Settings: endpoint: mean tumor weight, higher = larger tumour
Summary of the method: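 Antitumor activity is assessed in mice with transplantable tumors. Treated (T) and vehicle control (C) groups are compared on survival or tumor size.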

[1] = dose: 2.0 mg/kg/injection, schedule: Q01DX007 (ip), vehicle: saline
[2] = dose: 2.0 mg/kg/injection, schedule: Q01DX007 (ip), vehicle: carboxymethylcellulose (CMC)
[3] = dose: 4.0 mg/kg/injection, schedule: Q01DX007 (ip), vehicle: carboxymethylcellulose (CMC)
[4] = dose: 25.0 mg/kg/injection, schedule: Q01DX007 (ip), vehicle: saline
[5] = dose: 100.0 mg/kg/injection, schedule: Q01DX007 (ip), vehicle: saline
[6] = dose: 200.0 mg/kg/injection, schedule: Q01DX007 (ip), vehicle: saline
[7] = dose: 50.0 mg/kg/injection, schedule: Q01DX007 (ip), vehicle: saline
[8] = dose: 50.0 mg/kg/injection, schedule: Q01DX007 (ip), vehicle: water

O=CN(O)CC(=O)O
T/C (dose: 62.5 mg/kg/injection, schedule: Q01DX007 (ip), vehicle: carboxymethylcellulose (CMC)): 105 % of control
T/C (dose: 250.0 mg/kg/injection, schedule: Q01DX007 (ip), vehicle: carboxymethylcellulose (CMC)): 83 % of control
T/C (dose: 500.0 mg/kg/injection, schedule: Q01DX007 (ip), vehicle: carboxymethylcellulose (CMC)): 84 % of control
T/C (dose: 750.0 mg/kg/injection, schedule: Q01DX007 (ip), vehicle: carboxymethylcellulose (CMC)): 62 % of control
T/C (dose: 1000.0 mg/kg/injection, schedule: Q01DX007 (ip), vehicle: carboxymethylcellulose (CMC)): 61 % of control

CC(=O)c1cccc(NC2C(N)C(NC(=O)N(C)C)(C(C)O)C(C)(O)C2(O)COC(=O)c2c(C)cccc2O)c1 (stereo not given)
T/C (dose: 0.5 mg/kg/injection, schedule: Q01DX007 (ip), vehicle: other): 88 % of control
T/C (dose: 1.0 mg/kg/injection, schedule: Q01DX007 (ip), vehicle: other): 81 % of control
T/C (dose: 2.0 mg/kg/injection, schedule: Q01DX007 (ip), vehicle: other): 110 % of control
T/C [1]: 66 % of control

O=C(O)CC[S-].[Ag+]
T/C (dose: 187.5 mg/kg/injection, schedule: Q#A X014 (ip), vehicle: methylcellulose (MC)): 59 % of control and 68 % of control
T/C (dose: 281.0 mg/kg/injection, schedule: Q#A X014 (ip), vehicle: methylcellulose (MC)): 69 % of control

N#[N+]c1cnc([O-])[nH]c1=O
T/C (dose: 1.0 mg/kg/injection, schedule: Q01DX007 (ip), vehicle: carboxymethylcellulose (CMC)): 103 % of control
T/C [2]: 102 % of control
T/C [3]: 105 % of control
T/C (dose: 8.0 mg/kg/injection, schedule: Q01DX007 (ip), vehicle: carboxymethylcellulose (CMC)): 95 % of control

C=CCSc1ncnc2c1ncn2C1OC(CO)C(O)C1O (stereo not given)
T/C [4]: 80 % of control and 83 % of control
T/C [5]: 35 % of control and 52 % of control
T/C [6]: 34 % of control and 49 % of control

O=C1C=CC(=Nc2ccc3c(c2)C(Br)c2ccccc2-3)O1 (stereo not given)
T/C (dose: 16.5 mg/kg/injection, schedule: Q#A X014 (ip), vehicle: saline): 57 % of control and 75 % of control
T/C (dose: 37.5 mg/kg/injection, schedule: Q#A X014 (ip), vehicle: saline): 100 % of control
T/C (dose: 56.25 mg/kg/injection, schedule: Q#A X014 (ip), vehicle: saline): 73 % of control

CN1CCc2cc3c(cc2C(=O)Cc2ccc4c(c2C1)OCO4)OCO3
T/C (dose: 1.56 mg/kg/injection, schedule: Q01DX007 (ip), vehicle: saline): 109 % of control
T/C (dose: 3.13 mg/kg/injection, schedule: Q01DX007 (ip), vehicle: saline): 69 % of control
T/C (dose: 6.25 mg/kg/injection, schedule: Q01DX007 (ip), vehicle: saline): 119 % of control
T/C [4]: 60 % of control
T/C [7]: 64 % of control
T/C (dose: 62.0 mg/kg/injection, schedule: Q01DX007 (ip), vehicle: carboxymethylcellulose (CMC)): 79 % of control
T/C [5]: 80 % of control

O=C(O)c1cccc2c3c(cc([N+](=O)[O-])c12)CCCC3
T/C (dose: 1.5 mg/kg/injection, schedule: Q01DX007 (ip), vehicle: carboxymethylcellulose (CMC)): 157 % of control

Cc1cc(NC(=O)c2ccc(N)cc2)ccc1N=Nc1ccc(N=Nc2ccc3c(O)cc(S(=O)(=O)O)cc3c2)c2cc(S(=O)(=O)O)ccc12
T/C (dose: 12.5 mg/kg/injection, schedule: Q01DX007 (ip), vehicle: water): 110 % of control
T/C (dose: 25.0 mg/kg/injection, schedule: Q01DX007 (ip), vehicle: water): 97 % of control
T/C [8]: 62 % of control

CC(C)C(=O)OCC1OC(n2cnc3c(=S)nc(N)[nH]c32)C(OC(=O)C(C)C)C1OC(=O)C(C)C (stereo not given)
T/C (dose: 6.0 mg/kg/injection, schedule: Q01DX007 (ip), vehicle: carboxymethylcellulose (CMC)): 72 % of control
T/C (dose: 9.0 mg/kg/injection, schedule: Q01DX007 (ip), vehicle: carboxymethylcellulose (CMC)): 42 % of control
T/C (dose: 14.0 mg/kg/injection, schedule: Q01DX007 (ip), vehicle: methylcellulose (MC)): 42 % of control
T/C (dose: 21.0 mg/kg/injection, schedule: Q01DX007 (ip), vehicle: carboxymethylcellulose (CMC)): 5 % of control and 21 % of control
T/C (dose: 21.0 mg/kg/injection, schedule: Q01DX007 (ip), vehicle: methylcellulose (MC)): 29 % of control
T/C (dose: 31.0 mg/kg/injection, schedule: Q01DX007 (ip), vehicle: carboxymethylcellulose (CMC)): 7 % of control
T/C (dose: 31.0 mg/kg/injection, schedule: Q01DX007 (ip), vehicle: methylcellulose (MC)): 22 % of control

C[N+]1(CCC[N+]2(C)C[C@@H]3[C@H](C2)[C@@H]2C=C[C@H]3C2)CCOCC1 (stereo not given in full)
T/C (dose: 125.0 mg/kg/injection, schedule: Q01DX007 (ip), vehicle: saline): 95 % of control
T/C (dose: 500.0 mg/kg/injection, schedule: Q01DX007 (ip), vehicle: saline): 111 % of control

O=C(NCCCCCCCCCCNC(=O)N1CC1)N1CC1
T/C (dose: 0.9 mg/kg/injection, schedule: Q01DX007 (ip), vehicle: carboxymethylcellulose (CMC)): 66 % of control and 83 % of control
T/C (dose: 0.9 mg/kg/injection, schedule: Q01DX007 (ip), vehicle: saline): 70 % of control
T/C (dose: 1.3 mg/kg/injection, schedule: Q01DX007 (ip), vehicle: carboxymethylcellulose (CMC)): 64 % of control and 65 % of control
T/C (dose: 1.3 mg/kg/injection, schedule: Q01DX007 (ip), vehicle: saline): 67 % of control
T/C [2]: 35 % of control and 43 % of control
T/C [1]: 48 % of control
T/C (dose: 3.0 mg/kg/injection, schedule: Q01DX007 (ip), vehicle: carboxymethylcellulose (CMC)): 10 % of control and 21 % of control
T/C (dose: 3.0 mg/kg/injection, schedule: Q01DX007 (ip), vehicle: saline): 34 % of control
T/C [3]: 38 % of control

CCCCCCCCCCCCCCCCC(C(=O)O)C(O)(CC(=O)O)C(=O)O (stereo not given)
T/C (dose: 19.0 mg/kg/injection, schedule: Q01DX007 (ip), vehicle: carboxymethylcellulose (CMC)): 81 % of control
T/C (dose: 37.5 mg/kg/injection, schedule: Q01DX007 (ip), vehicle: carboxymethylcellulose (CMC)): 104 % of control
T/C (dose: 75.0 mg/kg/injection, schedule: Q01DX007 (ip), vehicle: carboxymethylcellulose (CMC)): 91 % of control

COC(=O)C1C(O)CCC2CN3CCc4c([nH]c5ccccc45)C3CC21 (stereo not given)
T/C (dose: 150.0 mg/kg/injection, schedule: Q01DX007 (ip), vehicle: carboxymethylcellulose (CMC)): 72 % of control

CC(C)=CCC1=C(O)c2ccccc2C(=O)C1=O
T/C (dose: 30.0 mg/kg/injection, schedule: Q01DX007 (ip), vehicle: water): 96 % of control
T/C [8]: 97 % of control
T/C (dose: 67.0 mg/kg/injection, schedule: Q01DX007 (ip), vehicle: other): 68 % of control
T/C (dose: 100.0 mg/kg/injection, schedule: Q01DX007 (ip), vehicle: other): 90 % of control
T/C (dose: 100.0 mg/kg/injection, schedule: Q01DX007 (ip), vehicle: water): 91 % of control and 107 % of control
T/C (dose: 100.0 mg/kg/injection, schedule: Q#A X014 (oral), vehicle: other): 70 % of control
T/C (dose: 150.0 mg/kg/injection, schedule: Q01DX007 (ip), vehicle: other): 73 % of control
T/C (dose: 150.0 mg/kg/injection, schedule: Q#A X014 (oral), vehicle: other): 46 % of control
T/C (dose: 200.0 mg/kg/injection, schedule: Q#A X014 (oral), vehicle: other): 42 % of control

COC1C(OC(N)=O)C(O)C(Oc2ccc3c(O)c(NC(=O)c4ccc(O)c(CC=C(C)C)c4)c(=O)oc3c2C)OC1(C)C (stereo not given)
T/C [6]: 102 % of control

COc1ccc2c(=O)cc(-c3ccccc3)n(C)c2c1
T/C [7]: 68 % of control
T/C [5]: 110 % of control
T/C [6]: 109 % of control
T/C (dose: 400.0 mg/kg/injection, schedule: Q01DX007 (ip), vehicle: saline): 76 % of control

CC(C)[C@]1(O)CC[C@H]2[C@@H]3CCc4cc(O)ccc4[C@H]3CC[C@@]21C
T/C (dose: 2.5 mg/kg/injection, schedule: Q01DX007 (sc), vehicle: steriod suspending solution): 92 % of control
T/C (dose: 5.0 mg/kg/injection, schedule: Q01DX007 (sc), vehicle: steriod suspending solution): 60 % of control
T/C (dose: 10.0 mg/kg/injection, schedule: Q01DX007 (sc), vehicle: steriod suspending solution): 95 % of control

CNCCc1ccccc1
T/C (dose: 110.0 mg/kg/injection, schedule: Q01DX007 (ip), vehicle: saline): 77 % of control

CCCCOC(=O)C1(N)CCCC1
T/C (dose: 60.0 mg/kg/injection, schedule: Q01DX007 (ip), vehicle: carboxymethylcellulose (CMC)): 72 % of control
T/C (dose: 90.0 mg/kg/injection, schedule: Q01DX007 (ip), vehicle: carboxymethylcellulose (CMC)): 72 % of control
T/C (dose: 135.0 mg/kg/injection, schedule: Q01DX007 (ip), vehicle: carboxymethylcellulose (CMC)): 33 % of control
T/C (dose: 148.0 mg/kg/injection, schedule: Q01DX007 (ip), vehicle: saline): 54 % of control
T/C (dose: 200.0 mg/kg/injection, schedule: Q01DX007 (ip), vehicle: carboxymethylcellulose (CMC)): 12 % of control
T/C (dose: 202.0 mg/kg/injection, schedule: Q01DX007 (ip), vehicle: carboxymethylcellulose (CMC)): 33 % of control
T/C (dose: 225.0 mg/kg/injection, schedule: Q01DX007 (ip), vehicle: saline): 33 % of control
T/C (dose: 336.0 mg/kg/injection, schedule: Q01DX007 (ip), vehicle: saline): 11 % of control
